# In ChEMBL document CHEMBL1137133, “Defining determinant molecular properties for the blockade of the apamin-sensitive SKCa channel in guinea-pig hepatocytes: the influence of polarizability and molecular geometry” (Bioorg Med Chem Lett, 2004):
# Experiment: Inhibition of I-apamin-sensitive SKCa channel of guinea-pig hepatocytes; 0.14+/-0.01
# Assay type: cell-based, Cavia porcellus
# Conditions: hepatocyte
row,SMILES,Ki [µM]
1,c1ccc2c(c1)c1cc[n+]2CCCCC[n+]2ccc(c3ccccc32)NCCCCCN1,0.00014

# Experiment: Inhibition of apamin-sensitive SKCa channel of guinea-pig hepatocytes
# Assay type: cell-based, Cavia porcellus
# Conditions: hepatocyte
row,SMILES,IC50 [µM]
1,COc1ccc(CC2c3cc(OC)c(OC)cc3CC[N+]2(C)CCC(=O)OCCCCCOC(=O)CC[N+]2(C)CCc3cc(OC)c(OC)cc3C2Cc2ccc(OC)c(OC)c2)cc1OC (stereo not given),3
2,COc1cc2c3cc1Oc1cc(ccc1O)C[C@@H]1c4c(cc(OC)c(O)c4Oc4ccc(cc4)C[C@@H]3N(C)CC2)CC[N+]1(C)C,3
3,C=CC1CN2CCC1CC2[C@H](O)c1ccnc2ccccc12 (stereo not given in full),420
4,Nc1c2ccccc2nc2ccccc12 [AMINACRINE],120
5,C=C[C@H]1CN2CC[C@H]1C[C@@H]2[C@@H](O)c1ccnc2ccccc12 [CINCHONINE],370
6,C[N+](C)(C)CCCCCCCCCC[N+](C)(C)C [DECAMETHONIUM],450
7,Cc1cc(N)c2ccccc2[n+]1CCCCCCCCCC[n+]1c(C)cc(N)c2ccccc21 [DEQUALINIUM CHLORIDE],1.7
8,CCCCOc1cc(C(=O)NCCN(CC)CC)c2ccccc2n1 [DIBUCAINE],470
9,CC[N+](CC)(CC)CCOc1cccc(OCC[N+](CC)(CC)CC)c1OCC[N+](CC)(CC)CC [GALLAMINE],12
10,C[N+](C)(C)CCCCCC[N+](C)(C)C [HEXAMETHONIUM CHLORIDE],2000
11,CC(=O)O[C@H]1C[C@@H]2CC[C@@H]3[C@H](CC[C@@]4(C)[C@H]3C[C@H]([N+]3(C)CCCCC3)[C@@H]4OC(C)=O)[C@@]2(C)C[C@@H]1[N+]1(C)CCCCC1 [PANCURONIUM],3.5
12,COc1cc(NC(C)CCCN)c2ncccc2c1 (stereo not given) [PRIMAQUINE],970
13,CCN(CC)CCCC(C)Nc1c2ccc(Cl)cc2nc2ccc(OC)cc12 (stereo not given) [QUINACRINE],73
14,C=C[C@H]1CN2CC[C@H]1C[C@@H]2[C@@H](O)c1ccnc2ccc(OC)cc12 [QUINIDINE],240
15,C=C[C@H]1CN2CC[C@H]1C[C@H]2[C@H](O)c1ccnc2ccc(OC)cc12 [QUININE],150
16,O=C1C[C@@H]2OCC=C3CN4CC[C@]56c7ccccc7N1[C@H]5[C@H]2[C@H]3C[C@H]46 [STRYCHNINE],190
17,CC[N+](CC)(CC)CC [TETRYLAMMONIUM],7900
18,c1ccc2c(c1)c1cc[n+]2Cc2ccc(cc2)Cc2ccc(cc2)C[n+]2ccc(c3ccccc32)NCCCCCCCCCCN1 [UCL-1530],2.6
19,CC(=O)O[C@H]1C[C@@H]2CC[C@@H]3[C@H](CC[C@@]4(C)[C@H]3C[C@H]([N+]3(C)CCCCC3)[C@@H]4OC(C)=O)[C@@]2(C)C[C@@H]1N1CCCCC1 [VECURONIUM],4.5
